Measurements published in ChEMBL document CHEMBL1201862, “PubChem BioAssay data set” (2004).
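The compound was tested at five concentrations on cells cultured in 96-well plates, with a 48-hour exposure period. At the GI50, growth is halved.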 Active and inactive are the calls of the source. Rule as the data show it: active = GI50 up to about 1.1 µM and inactive = higher.

How the values were obtained:
Assay in all cases: inhibition of tumour cell growth, NCI panel, 48 h
SNB-75 = test system: SNB-75
HT-29 = test system: HT-29
SR = test system: SR
OVCAR-4 = test system: OVCAR-4
SK-MEL-28 = test system: SK-MEL-28
NCI/ADR-RES = test system: NCI/ADR-RES
NCI-H23 = test system: NCI-H23
EKVX = test system: EKVX
HL-60 = test system: HL-60
LOX IMVI = test system: LOX IMVI
A549 = test system: A549
RPMI-8226 = test system: RPMI-8226
OVCAR-3 = test system: OVCAR-3
UACC-257 = test system: UACC-257
NCI-H522 = test system: NCI-H522
KM12 = test system: KM12
HOP-92 = test system: HOP-92
SK-OV-3 = test system: SK-OV-3
MDA-N = test system: MDA-N
PC-3 = test system: PC-3

Structure (SMILES)	GI50 (SNB-75)	GI50 (HT-29)	GI50 (SR)	GI50 (OVCAR-4)	GI50 (SK-MEL-28)	GI50 (NCI/ADR-RES)	GI50 (NCI-H23)	GI50 (EKVX)	GI50 (HL-60)	GI50 (LOX IMVI)	GI50 (A549)	GI50 (RPMI-8226)	GI50 (OVCAR-3)	GI50 (UACC-257)	GI50 (NCI-H522)	GI50 (KM12)	GI50 (HOP-92)	GI50 (SK-OV-3)	GI50 (MDA-N)	GI50 (PC-3)
c1ccc2sc(C3(N4CCC5(CC4)OCCO5)CCCCC3)cc2c1	56.4 µM (inactive)	21.1 µM (inactive)	7.89 µM (inactive)	> 100 µM (inactive)	> 100 µM (inactive)	> 100 µM (inactive)	> 100 µM (inactive)	> 100 µM (inactive)	12.2 µM (inactive)	> 100 µM (inactive)	> 100 µM (inactive)	29.4 µM (inactive)	> 100 µM (inactive)	60.1 µM (inactive)	78 µM (inactive)	56.4 µM (inactive)	25.8 µM (inactive)	> 100 µM (inactive)	80.4 µM (inactive)	
Clc1ccccc1CN1COc2c(cc(Cl)c3cccnc23)C1	5.68 µM (inactive)	19.2 µM (inactive)	0.439 µM (active)	3.97 µM (inactive)	6.27 µM (inactive)	0.224 µM (active)	3.38 µM (inactive)		0.398 µM (active)		3.35 µM (inactive)		6.59 µM (inactive)	3.43 µM (inactive)	3.4 µM (inactive)	3.03 µM (inactive)	3.18 µM (inactive)	8.75 µM (inactive)		2.57 µM (inactive)
CCCCCCc1cc2cc(-c3cn4c(n3)sc3ccccc34)c(=O)oc2cc1O	> 78.5 µM (inactive)	15.4 µM (inactive)	> 29.8 µM (inactive)	3.98 µM (inactive)	3.39 µM (inactive)	> 100 µM (inactive)	> 100 µM (inactive)	99.8 µM (inactive)	> 60.3 µM (inactive)	> 100 µM (inactive)	> 100 µM (inactive)	> 100 µM (inactive)	> 100 µM (inactive)	4.42 µM (inactive)	> 90.4 µM (inactive)	> 26.9 µM (inactive)	> 100 µM (inactive)	> 100 µM (inactive)		> 100 µM (inactive)
CNC(=O)OCC1=C(COC(=O)NC)C(C)N(c2ccc(OC)cc2)C1 (stereo not drawn)	29.4 µM (inactive)	64.9 µM (inactive)	15.7 µM (inactive)	54.6 µM (inactive)	> 100 µM (inactive)	60.4 µM (inactive)	68.9 µM (inactive)	> 100 µM (inactive)	23.8 µM (inactive)	> 100 µM (inactive)	> 100 µM (inactive)	58.6 µM (inactive)	43 µM (inactive)	36.7 µM (inactive)		> 100 µM (inactive)	> 100 µM (inactive)	> 100 µM (inactive)		71.6 µM (inactive)
O=C1N=C2SC(=S)N=C(S)N2NC12c1ccccc1-c1ccccc12	> 10 µM (inactive)	7.01 µM (inactive)	> 10 µM (inactive)	5.13 µM (inactive)		3.61 µM (inactive)	9.4 µM (inactive)	3.67 µM (inactive)	> 10 µM (inactive)	> 10 µM (inactive)	> 10 µM (inactive)	7.57 µM (inactive)		5.68 µM (inactive)		> 10 µM (inactive)	> 10 µM (inactive)	> 10 µM (inactive)	> 10 µM (inactive)	
Cc1ccc(C(=O)Nc2ccc(CP(=O)(O)O)cc2CP(=O)(O)O)cc1NC(=O)c1cccc(NC(=O)Nc2cccc(C(=O)Nc3cc(C(=O)Nc4ccc(CP(=O)(O)O)cc4CP(=O)(O)O)ccc3C)c2)c1	> 100 µM (inactive)	> 100 µM (inactive)		> 100 µM (inactive)	> 100 µM (inactive)	> 100 µM (inactive)	> 100 µM (inactive)	> 100 µM (inactive)	> 100 µM (inactive)	> 100 µM (inactive)	> 100 µM (inactive)	> 100 µM (inactive)	> 100 µM (inactive)	> 100 µM (inactive)	> 100 µM (inactive)	> 100 µM (inactive)		> 100 µM (inactive)	> 100 µM (inactive)	> 100 µM (inactive)
COC(=O)[C@@H]1CN(C(=O)c2ccccc2)C(=O)N1C(=O)OCc1ccccc1	> 100 µM (inactive)	> 100 µM (inactive)	> 100 µM (inactive)	> 100 µM (inactive)	> 100 µM (inactive)	> 100 µM (inactive)	> 100 µM (inactive)	> 100 µM (inactive)	> 100 µM (inactive)	> 100 µM (inactive)	> 100 µM (inactive)	> 100 µM (inactive)	> 100 µM (inactive)	> 100 µM (inactive)	> 100 µM (inactive)	> 100 µM (inactive)	> 100 µM (inactive)	> 100 µM (inactive)	> 100 µM (inactive)	
CC1=C(C(=O)N(C)c2ccc(Cl)c(C(=O)OC(C)C)c2)SCCO1	18.7 µM (inactive)	46.7 µM (inactive)		42.4 µM (inactive)	> 100 µM (inactive)	26.7 µM (inactive)	44.2 µM (inactive)	41.8 µM (inactive)	33.7 µM (inactive)	> 100 µM (inactive)	90.2 µM (inactive)	26.6 µM (inactive)	> 100 µM (inactive)	43.3 µM (inactive)	44.9 µM (inactive)	55 µM (inactive)	> 100 µM (inactive)	> 100 µM (inactive)		38.5 µM (inactive)
O=C1/C(=N\n2c(S)nnc2-c2ccncc2)c2cc(Cl)ccc2N1CN1CCCCC1	34.3 µM (inactive)	31.2 µM (inactive)		32.2 µM (inactive)	65.3 µM (inactive)	57.5 µM (inactive)	46.6 µM (inactive)	4.65 µM (inactive)	13.1 µM (inactive)	17.5 µM (inactive)	53.2 µM (inactive)		73.8 µM (inactive)	23.4 µM (inactive)	13.7 µM (inactive)	38.3 µM (inactive)	56 µM (inactive)	39.5 µM (inactive)	31.5 µM (inactive)	34.5 µM (inactive)
N#CCCN(CCC#N)c1ccc(/C=C2\N=C(c3ccccc3)N(c3ccc(C(=O)O)cc3)C2=O)cc1		95.1 µM (inactive)		14.4 µM (inactive)	36 µM (inactive)	> 100 µM (inactive)		26.2 µM (inactive)	> 10 µM (inactive)	30.9 µM (inactive)	> 100 µM (inactive)	46.8 µM (inactive)	40.1 µM (inactive)	37.2 µM (inactive)		17.2 µM (inactive)	6.28 µM (inactive)	> 100 µM (inactive)	> 100 µM (inactive)	37.5 µM (inactive)
COc1ccc(/C=N/NS(=O)(=O)c2ccc(/C=C3\NC(=O)NC3=O)cc2)cc1	23.9 µM (inactive)	> 100 µM (inactive)		> 100 µM (inactive)	> 100 µM (inactive)	> 100 µM (inactive)	> 100 µM (inactive)	> 100 µM (inactive)	98.6 µM (inactive)	> 100 µM (inactive)	> 100 µM (inactive)	> 100 µM (inactive)	> 100 µM (inactive)	> 100 µM (inactive)		> 100 µM (inactive)	> 100 µM (inactive)	73.5 µM (inactive)	> 100 µM (inactive)	> 100 µM (inactive)
O=S(=O)(c1ccc(Cl)cc1)c1ccccc1C1=NCCN1	> 100 µM (inactive)	> 100 µM (inactive)		> 100 µM (inactive)	> 100 µM (inactive)	> 100 µM (inactive)	> 100 µM (inactive)	> 100 µM (inactive)	> 100 µM (inactive)		> 100 µM (inactive)	> 100 µM (inactive)	> 100 µM (inactive)	> 100 µM (inactive)		> 100 µM (inactive)		> 100 µM (inactive)	> 100 µM (inactive)	> 100 µM (inactive)
CSc1nc2ccccc2c(=O)n1/N=C1\C(=O)N(CN2CCCCC2)c2ccc(Cl)cc21	19.7 µM (inactive)	36.7 µM (inactive)		30.2 µM (inactive)	60.5 µM (inactive)	34.8 µM (inactive)	28.4 µM (inactive)	14.1 µM (inactive)	10.9 µM (inactive)	14.2 µM (inactive)	37.2 µM (inactive)		59.3 µM (inactive)	20.4 µM (inactive)	12.2 µM (inactive)	25.1 µM (inactive)	32.9 µM (inactive)	27.4 µM (inactive)	21.8 µM (inactive)	29.4 µM (inactive)
O=C(Nc1ccc(Cl)cc1C(F)(F)F)C(=O)Nn1c(S)nc2ccccc2c1=O	27.8 µM (inactive)	> 100 µM (inactive)		60.4 µM (inactive)	> 100 µM (inactive)	> 100 µM (inactive)	> 100 µM (inactive)		60.5 µM (inactive)	> 100 µM (inactive)	> 100 µM (inactive)	> 100 µM (inactive)	> 100 µM (inactive)	> 100 µM (inactive)		> 100 µM (inactive)	3.99 µM (inactive)	> 100 µM (inactive)	> 100 µM (inactive)	> 100 µM (inactive)
O=C(O)c1cccc2cccc(-c3cccc4cccc(C(=O)O)c34)c12	> 100 µM (inactive)	> 100 µM (inactive)		> 100 µM (inactive)	> 100 µM (inactive)	> 100 µM (inactive)	> 100 µM (inactive)	> 100 µM (inactive)	> 100 µM (inactive)	> 100 µM (inactive)	> 100 µM (inactive)		> 100 µM (inactive)	> 100 µM (inactive)	> 100 µM (inactive)	> 100 µM (inactive)		> 100 µM (inactive)	> 100 µM (inactive)	> 100 µM (inactive)
